Test results published in patent US20180289008A1, “METHODS FOR WILDFIRE CONTROL, INVASIVE PLANT CONTROL, AND RESIDUAL CONTROL OF INVASIVE PLANTS” (priority 2017, published 2018).

Tests used:
[1] = test system: Dalmatian toadflax (Linaria dalmatica); test: Herbicide efficacy field trial, visual percent control of Dalmatian toadflax; assay type: in vivo; settings: 4 YAT
Experimental: The present inventors conducted a field trial to evaluate the effectiveness of herbicides for long-term downy brome and Dalmatian toadflax control. The experiment was conducted at one site. The results provide the framework for the subsequent greenhouse experiment. (See below). The field experiment was located in Longmont, Colo. (lat 40° 14′57.53″N, long 105° 12′35.46″W) on Rabbit Mountain Open Space, the easternmost point of the foothills in Boulder County. The canopy cover of actively growing downy brome and Dalmatian toadflax at peak standing crop was approximately 85% and 30%, respectively. Before herbicide application (June and August), perennial grasses (<10% canopy cover) included primarily western wheatgrass (Pascopyrum smithii (Rydb.) A. Love), and native forbs and sub-shrubs (˜20% canopy cover) included Louisiana sage (Artemisia ludoviciana Nutt.), fringed sage (Artemisia frigida Willd.), common sunflower (Helianthus annuus L.), sulphur-flower buckwheat (Eriogonum umbellatum Torr.), and hairy goldenaster (Heterotheca villosa (Pursh) Shinners). The soil at the study site was Baller sandy loam (loamy-skeletal, mixed, superactive, mesic Lithic Haplustolls), with 1.5% organic matter in the top 20 cm. The average elevation was 1,725 m (5,660 ft). Mean annual precipitation based on the 30-yr average was 363 mm and the mean annual temperature was 9.1° C. […]. A statewide-drought occurred and average total precipitation decreased 134 mm; however, the site received an additional 110 mm above the 30-yr average.
Herbicides were applied in the summer at two application timings; June, when Dalmatian toadflax was in the flowering growth stage, and August, during Dalmatian toadflax regrowth. These two application timings (June and August) were both before downy brome emergence (PRE). The 13 herbicide treatments (including a non-treated control) were applied to 3 by 9 m plots arranged in a randomized complete block design with four replications, and are listed in Table 1. […]
(§1) For the herbicide efficacy field experiment, repeated measures analysis of variance (ANOVA) was used to determine the effects of herbicide treatments on long-term Dalmatian toadflax and downy brome control. Percent control data were first analyzed in SAS 9.3 using Proc MIXED, with year after treatment defined as the repeated measure (SAS Institute 2010). […] Dalmatian toadflax and downy brome control response variables were analyzed separately, and main effects and interactions were tested at the α=0.05 significance level. […] To determine herbicide impacts on residual Dalmatian toadflax and downy brome control, the significant treatment-by-year interaction was evaluated using the Proc GLIMMIX method and the LINES statement. […]

[2] = pH 7; cited from earlier work
[3] = average; cited from earlier work
[4] = test system: Common mullein (Verbascum thapsus); test: Greenhouse pre-emergence dose-response bioassay (GR50); assay type: in vivo; settings: pre-emergence
Source text: (§2) A greenhouse experiment was designed to determine if the extended control of Dalmatian toadflax and downy brome provided by indaziflam in the field was due to increased residual seedling control. This experiment was designed to compare indaziflam's pre-emergence efficacy to the currently recommended herbicides (aminocyclopyrachlor and aminopyralid) for annual, biennial, and perennial weed control in non-crop areas. […] This allows for direct comparisons between herbicides on an active ingredient basis for aminopyralid, aminocyclopyrachlor, and indaziflam.
(§3) For the greenhouse bioassay, seeds were planted at a constant depth of 0.5 cm in 13- by 9- by 6-cm plastic containers, filled with an Otero sandy clay loam field soil (Coarse-loamy, mixed (calcareous), mesic Aridic Ustorthents) with 3.9% OM and pH 7.7. Seeding densities were adjusted based on germinability to reach a target density of 40 plants/pot. Plants were maintained in a greenhouse with a 25/20° C. day/night temperature with natural light supplemented with high-intensity discharge lamps to give a 15-h photoperiod. Plants were sub-irrigated as needed and misted overhead daily to reduce soil crusting.
(§4) The greenhouse experiment was a completely randomized design with a factorial of seven herbicide rates and a non-treated control with three replicates per treatment. The experiments were conducted at two different times. A preliminary greenhouse study was conducted for each herbicide and species to determine a range of doses that would best fit a logistic regression. It is not unusual for both pre-emergence and post-emergence herbicides to provide control at lower than labeled rates, e.g., 0.5-560 g ai ha^−1 (aminocyclopyrachlor), 0.9-224 g ai ha^−1 (aminopyralid), and 0.05-11.7 g ai ha^−1 (indaziflam) in the greenhouse with ideal environmental conditions, so it was not surprising that herbicide doses for the regression analysis were much lower than recommended field use rates. Herbicides were applied pre-emergence using a Generation III research track sprayer (DeVries Manufacturing, Hollandale, Minn.) equipped with a TeeJet 8002 EVS flat-fan spray nozzle (TeeJet Spraying Systems Co., Wheaton, Ill.) at 187 L·ha-1 at 172 kPa.
(§5) Plants were harvested at the soil surface approximately 4 to 5 week-after-treatment (WAT) depending on the growth stage of each species. Weights were recorded after samples were dried for 5 days at 60° C. Percent dry weight reduction was calculated relative to the non-treated control plants for each treatment.
(§6) Data from the greenhouse dose-response experiment were first analyzed using the PROC MIXED method in SAS 9.3 with treatment as a fixed effect and experiment and replicate as random effects (SAS Institute 2010). Based on a non-significant homogeneity of variance (ANOVA) and experiment-by-herbicide rate interaction, results from the repeated experiments were pooled. The treatment effect was significant, therefore, nonlinear regression in Graphpad Prism 7.00 (GraphPad Software, La Jolla Calif. USA) was used to describe the response of the nine weed species to aminocyclopyrachlor, aminopyralid, and indaziflam. The herbicide concentrations resulting in 50% reduction in plant biomass (GR50) compared to the non-treated control were determined for each invasive weed species using four-parameter log-logistic regression. The equation used to regress herbicide concentration with percent reduction in plant dry biomass as compared to the non-treated control was:
(§7) where C and D represent the lower and upper limits of the dose-response curve, respectively, and b represents the slope of the best-fitting curve through the GR50 value. For curve fitting and GR50 estimation, the model was constrained to a maximum of 100 and minimum of 0. Mean separation of herbicide GR50 values were analyzed by Fisher's Protected LSD test at the 5% level of probability. […]

[5] = test system: Common teasel (Dipsacus fullonum); test: as above; assay type: in vivo; settings: for GR50 (herbicide dose resulting in 50% dry biomass reduction): pre-emergence
Source text: as §2, §3, §4, §5, §6, §7

[6] = test system: Curly dock (Rumex crispus); test: as above; assay type: in vivo; settings: pre-emergence
Source text: as §2, §3, §4, §5, §6, §7

[7] = test system: Dalmatian toadflax (Linaria dalmatica); test: as above; assay type: in vivo; settings: pre-emergence
Source text: as §2, §3, §4, §5, §6, §7

[8] = test system: Diffuse knapweed (Centaurea diffusa); test: as above; assay type: in vivo; settings: pre-emergence
Source text: as §2, §3, §4, §5, §6, §7

[9] = test system: Halogeton (Halogeton glomeratus); test: as above; assay type: in vivo; settings: pre-emergence
Source text: as §2, §3, §4, §5, §6, §7

[10] = test system: Marestail (Conyza Canadensis); test: as above; assay type: in vivo; settings: pre-emergence
Source text: as §2, §3, §4, §5, §6, §7

[11] = test system: Musk thistle (Carduus nutans); test: as above; assay type: in vivo; settings: pre-emergence
Source text: as §2, §3, §4, §5, §6, §7

[12] = test system: downy brome (Bromus tectorum); test: as above; assay type: in vivo; settings: pre-emergence
Source text: as §2, §3, §4, §5, §6, §7

[13] = test system: downy brome (Bromus tectorum); test: Herbicide efficacy field trial, visual percent control of downy brome; assay type: in vivo; settings: 4 YAT
Experimental: The present inventors conducted a field trial to evaluate the effectiveness of herbicides for long-term downy brome and Dalmatian toadflax control. The experiment was conducted at one site. The results provide the framework for the subsequent greenhouse experiment. (See below). The field experiment was located in Longmont, Colo. (lat 40° 14′57.53″N, long 105° 12′35.46″W) on Rabbit Mountain Open Space, the easternmost point of the foothills in Boulder County. The canopy cover of actively growing downy brome and Dalmatian toadflax at peak standing crop was approximately 85% and 30%, respectively. […]
as §1

[14] = test system: invasive winter annual grass (downy brome, feral rye, Japanese brome); test: Invasive winter annual grass field efficacy studies, biomass as percent of non-treated (Sites 1 and 2 combined); assay type: in vivo, Bromus tectorum, Secale cereale, Bromus japonicus; settings: 1 YAT, EPRE timing, imazapic 123 g·ai·ha^−1
Experimental: In year 1, field experiments were conducted to compare the effectiveness of indaziflam and imazapic for long-term invasive winter annual grass control, and to evaluate the response of the native plant communities. The experiments were established at two sites on the Colorado Front Range dominated by invasive winter annual grasses. Site 1 (lat 40° 15′2″N, long 105° 12′56″W) was infested with equal amounts of downy brome and Japanese brome. Site 2 (lat 40° 43′23″N, long 104° 55′58″W) was infested with feral rye. These two sites were approximately 58 km apart. Site 1 was located on Rabbit Mountain Open Space (Boulder County). Site 2 was located on a Colorado Parks and Wildlife Area (Larimer County). Before herbicide application in July, visual estimates were made across the entire study area of percentage of living canopy cover for all species present at both sites.
Site 1 was characterized by ˜80-100% downy brome and Japanese brome canopy cover with a dense fine-fuel layer, e.g., thatch, (2 to 5 cm), and a scattered stand of co-occurring species (˜0-10% canopy cover, Table 4). […]
Biomass harvests and species richness evaluations were conducted in August (year 2 and year 3) to evaluate invasive winter annual grass control and response of co-occurring species. […] Additionally, at Site 1, species richness was calculated for each treatment as a simple estimate of biological diversity. […]

Row | SMILES | Dalmatian toadflax control ([1]; August application timing) [%] | Dalmatian toadflax control ([1]; June application timing) [%] | Log Kow [2] | water solubility [3] | GR50 (herbicide dose resulting in 50% dry biomass reduction) [4] | GR50 (herbicide dose resulting in 50% dry biomass reduction) [5] | GR50 (herbicide dose resulting in 50% dry biomass reduction) [6] | GR50 (herbicide dose resulting in 50% dry biomass reduction) [7] | GR50 (herbicide dose resulting in 50% dry biomass reduction) [8] | GR50 (herbicide dose resulting in 50% dry biomass reduction) [9] | GR50 (herbicide dose resulting in 50% dry biomass reduction) [10] | GR50 (herbicide dose resulting in 50% dry biomass reduction) [11] | GR50 (herbicide dose resulting in 50% dry biomass reduction) [12] [b g ai ha^−1] | times more active (lower GR50) compared to aminocyclopyrachlor [5] | times more active (lower GR50) compared to indaziflam [5] | residual downy brome control [13] | invasive winter annual grass control [14] [%]
1 | Nc1c(Cl)c(Cl)nc(C(=O)O)c1Cl [Picloram, picloram] | 64 | 68 | 1.18 | 200,000 mg L-1 |  |  |  |  |  |  |  |  |  |  |  |  | 
2 | Nc1nc(C2CC2)nc(C(=O)[O-])c1Cl.[K+] [Aminocyclopyrachlor, aminocyclopyrachlor] | 55 | 50 | −2.48 | 4,200 mg L-1 | 3.05 b g ai ha^−1 | 6.89 c g ai ha^−1 | 21.3 b g ai ha^−1 | 1.16 b g ai ha^−1 | 6.20 c g ai ha^−1 | 1.04 b g ai ha^−1 | 2.09 c g ai ha^−1 | 1.25 b g ai ha^−1 | 56.4 |  |  |  | 
3 | Nc1cc(Cl)nc(C(=O)O)c1Cl [Aminopyralid, aminopyralid] |  |  | −2.87 | 207,000 mg L-1 | 7.45 c g ai ha^−1 | 0.75 a g ai ha^−1 | 1.25 a g ai ha^−1 | 14.8 c g ai ha^−1 | 2.50 b g ai ha^−1 | 3.11 c g ai ha^−1 | 0.80 b g ai ha^−1 | 0.31 a g ai ha^−1 | 38.5 | 9 | 2 |  | 
4 | Cc1cnc(C2=NC(=O)C(C)(C(C)C)N2)c(C(=O)O)c1 (stereo not drawn) [Imazapic, imazapic] |  |  | 0.01 |  |  |  |  |  |  |  |  |  |  |  |  | less than 25% | ~41
